System: EpidermFT™ Skin Model (EFT-400) full thickness skin cultures
Assay: Affymetrix GeneChip HG U133 Plus 2.0 microarray global gene expression, agent-exposed vs untreated skin cultures
Type: cell-based, human
Conditions: Salicin 0.5% vs Untreated Control, 24 hr treatment

OCc1ccccc1O[C@@H]1O[C@H](CO)[C@@H](O)[C@H](O)[C@H]1O [Salicin, 2-(Hydroxymethyl)phenyl β-D-glucospyranoside]
Direction UGCGL2 (218801_at): up
Direction UST (205139_s_at): up
Direction WIPI1 (203827_at): up
Direction XPO1 (235927_at): up
Direction ZFAND5 (217649_at): up
Direction ZFP36L1 (211965_at): up
Direction ZNF281 (228785_at): up
Direction ZNF331 (219228_at): up
Direction ZNF697 (227080_at): up
Fold change ABHD2 (205566_at): 2.508
Fold change ABHD2 (221815_at): 2.348
Fold change ABHD2 (225337_at): 2.704
Fold change ADAMTS5 (235368_at): 2.751
Fold change ADAMTS6 (1570351_at): 2.37
Fold change ADCYAP1 (230237_at): 2.573
Fold change AHI1 (220841_s_at): 2.322
Fold change AHI1 (221569_at): 2.667
Fold change AKR1C1 (1562102_at): 2.331
Fold change AKT3 (212607_at): 2.622
Fold change AKT3 (212609_s_at): 2.3
Fold change AKT3 (222880_at): 2.365
Fold change AKT3 (224229_s_at): 2.751
Fold change ALG9 (228817_at): 2.321
Fold change ANKRD28 (213035_at): 2.361
Fold change ANKRD28 (229307_at): 2.421
Fold change ARMC8 (1555281_x_at): 2.299
Fold change ARNT2 (202986_at): 2.361
Fold change ATF3 (1554980_a_at): 2.623
Fold change ATP2A3 (207522_s_at): 2.434
Fold change BAG2 (209406_at): 2.774
Fold change BCL2L11 (1558143_a_at): 2.347
Fold change BNC2 (220272_at): 2.471
Fold change BNC2 (235723_at): 2.707
Fold change C1GALT1C1 (238989_at): 2.327
Fold change C1orf67 /// DNAH14 (242283_at): 2.614
Fold change C13orf33 (227058_at): 2.621
Fold change CABLES1 (225532_at): 2.633
Fold change CARD16 (1552701_a_at): 2.363
Fold change CCR1 (205098_at): 2.474
Fold change CDCP1 (1554110_at): 2.44
Fold change CDR2 (209501_at): 2.488
Fold change CHST2 (203921_at): 2.332
Fold change CLGN (205830_at): 2.486
Fold change CNOT3 (203239_s_at): 2.466
Fold change CPM (241765_at): 2.574
Fold change CPM (243403_x_at): 2.436
Fold change CREM (207630_s_at): 2.309
Fold change CUL4B (202213_s_at): 2.538
Fold change CXCL1 (204470_at): 2.363
Fold change CYP7B1 (207386_at): 2.782
Fold change CYR61 (210764_s_at): 2.692
Fold change DENND3 (212975_at): 2.471
Fold change DENND5B (228551_at): 2.474
Fold change DGKI (206806_at): 2.74
Fold change DNAJB9 (202842_s_at): 2.613
Fold change DNAJB9 (1554462_a_at): 2.666
Fold change DNAJC10 (221781_s_at): 2.508
Fold change DNAJC10 (221782_at): 2.553
Fold change DOCK4 (205003_at): 2.383
Fold change DOCK5 (230206_at): 2.653
Fold change DOCK5 (230263_s_at): 2.362
Fold change DOK6 (236290_at): 2.316
Fold change DSEL (232825_s_at): 2.821
Fold change DUSP4 (204015_s_at): 2.668
Fold change DZIP1 (204557_s_at): 2.653
Fold change EIF2AK3 (218696_at): 2.305
Fold change ELL2 (214446_at): 2.557
Fold change ELTD1 (219134_at): 2.637
Fold change ENPP1 (205066_s_at): 2.414
Fold change ENTPD7 (220153_at): 2.395
Fold change EPS8 (202609_at): 2.334
Fold change EREG (205767_at): 2.487
Fold change ERO1LB (220012_at): 2.376
Fold change FADS1 (208963_x_at): 2.411
Fold change FADS1 (208964_s_at): 2.638
Fold change FAM20A (226804_at): 2.437
Fold change FAM107B (223058_at): 2.544
Fold change FAM107B (223059_s_at): 2.476
Fold change FAR2 (220615_s_at): 2.497
Fold change FAT4 (219427_at): 2.428
Fold change FEM1B (212374_at): 2.726
Fold change FGF7 (1555103_s_at): 2.35
Fold change FGF7 /// KGFLP1 /// KGFLP2 (1554741_s_at): 2.506
Fold change FHOD3 (218980_at): 2.607
Fold change FKBP11 (219117_s_at): 2.431
Fold change FKBP11 (219118_at): 2.422
Fold change FMN2 (1555471_a_at): 2.355
Fold change FN1 (214701_s_at): 2.436
Fold change FN1 (214702_at): 2.71
Fold change FOXJ3 (217310_s_at): 2.327
Fold change FPR1 (205119_s_at): 2.402
Fold change GAS1 (204457_s_at): 2.783
Fold change GCLM (203925_at): 2.646
Fold change GCLM (236140_at): 2.667
Fold change GEM (204472_at): 2.52
Fold change GFPT1 (226886_at): 2.512
Fold change GFPT2 (205100_at): 2.3
Fold change GLIPR1 (204222_s_at): 2.366
Fold change GRAMD1A (224807_at): 2.363
Fold change GRAMD1B (212906_at): 2.401
Fold change GUCY1A3 (221942_s_at): 2.594
Fold change GUCY1A3 (229530_at): 2.498
Fold change HERC3 (1554290_at): 2.372
Fold change HEY1 (44783_s_at): 2.372
Fold change HIST1H2AB /// HIST1H2AE (214469_at): 2.52
Fold change HIST1H2AD /// HIST1H3A /// HIST1H3B /// HIST1H3C /// HIST1H3D /// HIST1H3E /// HIST1H3F /// HIST1H3G /// HIST1H3H /// HIST1H3I /// HIST1H3J (214472_at): 2.608
Fold change HIST2H2AA3 /// HIST2H2AA4 (214290_s_at): 2.42
Fold change HK2 (222305_at): 2.329
Fold change HOXB2 (205453_at): 2.404
Fold change HSD17B2 (204818_at): 2.766
Fold change HSPA13 (202557_at): 2.665
Fold change ID2 /// ID2B (213931_at): 2.802
Fold change IGFBP5 (211958_at): 2.712
